From PubChem BioAssay AID1259407 (Chemical Carcinogenesis Research Information System (CCRIS), 2018)
Calls of active or inactive are those of the source. The rule behind the calls is not given here.

Test system: CCRIS mutagenicity, Ames/micronucleus/aberration tests
Experiment: CCRIS mutagenicity studies

Measured: mutagenic call

Nc1ccc(-c2ccc(N)c(Cl)c2)cc1Cl
inactive: Test System: AMES SALMONELLA TYPHIMURIUM, Strain/Indicator: TA100, Metabolic Activation: NONE, Method: PREINCUBATION inactive; negative | Test System: AMES SALMONELLA TYPHIMURIUM, Strain/Indicator: TA100, Metabolic Activation: NONE, Method: STANDARD PLATE inactive; negative | Test System: AMES SALMONELLA TYPHIMURIUM, Strain/Indicator: TA1535, Metabolic Activation: HAMSTER, LIVER, S-9, AROCLOR 1254, Method: PREINCUBATION inactive; negative | Test System: AMES SALMONELLA TYPHIMURIUM, Strain/Indicator: TA1535, Metabolic Activation: NONE, Method: PREINCUBATION inactive; negative | Test System: AMES SALMONELLA TYPHIMURIUM, Strain/Indicator: TA1535, Metabolic Activation: RAT, LIVER, S-9, AROCLOR 1254, Method: PREINCUBATION inactive; negative | Test System: AMES SALMONELLA TYPHIMURIUM, Strain/Indicator: TA1537, Metabolic Activation: NONE, Method: PREINCUBATION inactive; negative
active: Test System: AMES SALMONELLA TYPHIMURIUM, Strain/Indicator: TA98(1,8-DNP6), Metabolic Activation: NONE, Method: STANDARD PLATE active; positive | Test System: AMES SALMONELLA TYPHIMURIUM, Strain/Indicator: TA98(1,8-DNP6), Metabolic Activation: S-9, Method: STANDARD PLATE active; positive | Test System: AMES SALMONELLA TYPHIMURIUM, Strain/Indicator: TA98/1,8-DNP6, Metabolic Activation: HAMSTER, LIVER, S-9, Method: PREINCUBATION active; positive | Test System: AMES SALMONELLA TYPHIMURIUM, Strain/Indicator: TA98/1,8-DNP6, Metabolic Activation: NONE, Method: PREINCUBATION active; positive | Test System: AMES SALMONELLA TYPHIMURIUM, Strain/Indicator: TA98, Metabolic Activation: HAMSTER, LIVER, S-9, AROCLOR 1254, Method: PREINCUBATION active; positive | Test System: AMES SALMONELLA TYPHIMURIUM, Strain/Indicator: TA98, Metabolic Activation: HAMSTER, LIVER, S-9, Method: PREINCUBATION active; positive | Test System: AMES SALMONELLA TYPHIMURIUM, Strain/Indicator: TA98, Metabolic Activation: MOUSE, LIVER, S-9, Method: STANDARD PLATE active; positive | Test System: AMES SALMONELLA TYPHIMURIUM, Strain/Indicator: TA98, Metabolic Activation: NONE, Method: PREINCUBATION active; positive | Test System: AMES SALMONELLA TYPHIMURIUM, Strain/Indicator: TA98, Metabolic Activation: NONE, Method: STANDARD PLATE active; positive | Test System: AMES SALMONELLA TYPHIMURIUM, Strain/Indicator: TA98, Metabolic Activation: RAT LIVER S-9, AROCLOR 1254, Method: PREINCUBATION active; positive | Test System: AMES SALMONELLA TYPHIMURIUM, Strain/Indicator: TA98, Metabolic Activation: RAT, LIVER, S-9, AROCLOR 1254, Method: PREINCUBATION active; positive | Test System: AMES SALMONELLA TYPHIMURIUM, Strain/Indicator: TA98, Metabolic Activation: RAT, LIVER, S-9, AROCLOR 1254, Method: STANDARD PLATE active; positive | Test System: AMES SALMONELLA TYPHIMURIUM, Strain/Indicator: TA98, Metabolic Activation: S-9, Method: STANDARD PLATE active; positive | Test System: AMES SALMONELLA TYPHIMURIUM, Strain/Indicator: TA100, Metabolic Activation: HAMSTER, LIVER, S-9, AROCLOR 1254, Method: PREINCUBATION active; positive | Test System: AMES SALMONELLA TYPHIMURIUM, Strain/Indicator: TA100, Metabolic Activation: RAT LIVER S-9, AROCLOR 1254, Method: PREINCUBATION active; positive | Test System: AMES SALMONELLA TYPHIMURIUM, Strain/Indicator: TA100, Metabolic Activation: RAT, LIVER, S-9, AROCLOR 1254, Method: PREINCUBATION active; positive | Test System: AMES SALMONELLA TYPHIMURIUM, Strain/Indicator: TA100, Metabolic Activation: RAT, LIVER, S-9, AROCLOR 1254, Method: STANDARD PLATE active; positive | Test System: AMES SALMONELLA TYPHIMURIUM, Strain/Indicator: TA100, Metabolic Activation: S-9, Method: STANDARD PLATE active; positive | Test System: AMES SALMONELLA TYPHIMURIUM, Strain/Indicator: TA1535, Metabolic Activation: RAT, LIVER, S-9, AROCLOR 1254, Method: STANDARD PLATE active; positive | Test System: AMES SALMONELLA TYPHIMURIUM, Strain/Indicator: TA1537, Metabolic Activation: HAMSTER, LIVER, S-9, AROCLOR 1254, Method: PREINCUBATION active; positive | Test System: AMES SALMONELLA TYPHIMURIUM, Strain/Indicator: TA1537, Metabolic Activation: RAT, LIVER, S-9, AROCLOR 1254, Method: PREINCUBATION active; positive | Test System: AMES SALMONELLA TYPHIMURIUM, Strain/Indicator: TA1537, Metabolic Activation: RAT, LIVER, S-9, PHENOBARBITAL, Method: STANDARD PLATE active; positive | Test System: AMES SALMONELLA TYPHIMURIUM, Strain/Indicator: TA1538, Metabolic Activation: HAMSTER, LIVER, S-9, Method: STANDARD PLATE active; positive | Test System: AMES SALMONELLA TYPHIMURIUM, Strain/Indicator: TA1538, Metabolic Activation: NONE, Method: STANDARD PLATE active; positive | Test System: AMES SALMONELLA TYPHIMURIUM, Strain/Indicator: TA1538, Metabolic Activation: RAT, LIVER, S-9, AROCLOR 1254, Method: STANDARD PLATE active; positive | Test System: AMES SALMONELLA TYPHIMURIUM, Strain/Indicator: TA1538, Metabolic Activation: RAT, LIVER, S-9, PHENOBARBITAL, Method: STANDARD PLATE active; positive | Test System: Ames Salmonella typhimurium, Strain/Indicator: TA102, Metabolic Activation: None, Method: Preincubation active; positive | Test System: Ames Salmonella typhimurium, Strain/Indicator: TA102, Metabolic Activation: Rat, liver, S-9, Aroclor 1254, 4%, Method: Preincubation active; positive | Test System: UDS HUMAN FIBROBLASTS, Strain/Indicator: THY INCORP (NON-S-PHASE), Metabolic Activation: NONE, Method: LIQUID SCINTILLATION COUNTING active; positive

Nc1ccc(I)cc1Cl
active: End Point: In vitro chromosomal aberrations, Test System: Chinese hamster lung (CHL/IU) cells, Metabolic Activation: Rat, Liver, S9, Phenobarbital and 5,6-benzoflavone active; positive (structural changes). weak response.
inactive: Test System: Ames Salmonella typhimurium, Strain/Indicator: TA98, Metabolic Activation: None, Method: Preincubation inactive; negative | Test System: Ames Salmonella typhimurium, Strain/Indicator: TA98, Metabolic Activation: Rat, Liver, S9, Sodium phenobarbital and 5,6-benzoflavone (10%), Method: Preincubation inactive; negative | Test System: Ames Salmonella typhimurium, Strain/Indicator: TA100, Metabolic Activation: None, Method: Preincubation inactive; negative | Test System: Ames Salmonella typhimurium, Strain/Indicator: TA1535, Metabolic Activation: None, Method: Preincubation inactive; negative | Test System: Ames Salmonella typhimurium, Strain/Indicator: TA1535, Metabolic Activation: Rat, Liver, S9, Sodium phenobarbital and 5,6-benzoflavone (10%), Method: Preincubation inactive; negative | Test System: Ames Salmonella typhimurium, Strain/Indicator: TA1537, Metabolic Activation: None, Method: Preincubation inactive; negative | Test System: Ames Salmonella typhimurium, Strain/Indicator: TA1537, Metabolic Activation: Rat, Liver, S9, Sodium phenobarbital and 5,6-benzoflavone (10%), Method: Preincubation inactive; negative | Test System: E. coli, Strain/Indicator: WP2uvrA/pKM101, Metabolic Activation: None, Method: Preincubation inactive; negative | Test System: E. coli, Strain/Indicator: WP2uvrA/pKM101, Metabolic Activation: Rat, Liver, S9, Sodium phenobarbital and 5,6-benzoflavone (10%), Method: Preincubation inactive; negative

C1=Cc2cc3cc4ccccc4cc3c3cccc1c23
active: Test System: CHINESE HAMSTER OVARY, Strain/Indicator: V-79/6-THIOGUANINE, Metabolic Activation: RAT, LIVER, S-9, AROCLOR 1254, Method: FLASK ASSAY active; positive | Test System: CHINESE HAMSTER V-79, Strain/Indicator: V-79/6-THIOGUANINE, Metabolic Activation: RAT, LIVER, S-9, AROCLOR 1254, Method: SUSPENSION/PLATE active; positive
inactive: Test System: CHINESE HAMSTER OVARY, Strain/Indicator: V-79/6-THIOGUANINE, Metabolic Activation: SHE CELL MEDIATED, Method: FLASK ASSAY inactive; negative
